Measured values: patent US20050271676A1, “Inducing cellular immune responses to human immunodeficiency virus-1 using peptide and nucleic acid compositions” (Epimmune Inc., priority 1993, published 2005)
No end group written: not given here.

Experiments:
HLA-A*0202 = HLA-A*0202 (Homo sapiens, UniProt P04439, D140Y/D185E/D98H/E176V/E277Q/G131W/G231S/I119L/I121R/I166T/I218V/L180W/L300P/L318F/N151K/N90K/P208A/P217A/Q67R/Q86G/Q94H/R138H/R169H/T345S); assay: purified HLA class I binding assay, A*0202
HLA-A*0206 = HLA-A*0206 (Homo sapiens, UniProt P04439, D140Y/D185E/D98H/E176V/E277Q/F33Y/G131W/G231S/I119V/I121R/I166T/I218V/L300P/L318F/N151K/N90K/P208A/P217A/Q86G/Q94H/R138H/R169H/T345S); assay: purified HLA class I binding assay, A*0206
HLA-A*6802 = HLA-A*6802 (Homo sapiens, UniProt P04439, A269V/D140Y/D185E/E176V/E277Q/E87N/F33Y/G231S/I121R/I166T/I218V/L180W/L300P/L318F/N151K/P208A/P217A/Q86R/R138H/R169H/S129P/T345S/V36M); assay: purified HLA class I binding assay, A*6802
HLA-A*0203 = HLA-A*0203 (Homo sapiens, UniProt P04439, A173T/D140Y/D185E/D98H/E277Q/G131W/G231S/I119V/I121R/I166T/I218V/L180W/L300P/L318F/N151K/N90K/P208A/P217A/Q86G/Q94H/R138H/R169H/T345S); assay: purified HLA class I binding assay, A*0203
HLA-DRB1*0301 (DR3) = target: T1, HLA-DRB1*0301 (DR3) (Homo sapiens, UniProt P01903+P01911, A100K/A102G/A103R/A169T/F55Y/I96L/K41T/L162R/M171V/P40S/Q125H/Q178H/Q39Y/R42S/S66N/T106N/T262R/W38E/Y61H); assay: purified HLA class II binding assay, DRB1*0301 (DR3), pH 4.5; settings: for DR3 binding information: Table XXd, HIV DR 3b motif peptides
T1 construct: endogenous in cells; host or cells: MAT
T1 sequence (P01903 26-254 partner, other chains not shown): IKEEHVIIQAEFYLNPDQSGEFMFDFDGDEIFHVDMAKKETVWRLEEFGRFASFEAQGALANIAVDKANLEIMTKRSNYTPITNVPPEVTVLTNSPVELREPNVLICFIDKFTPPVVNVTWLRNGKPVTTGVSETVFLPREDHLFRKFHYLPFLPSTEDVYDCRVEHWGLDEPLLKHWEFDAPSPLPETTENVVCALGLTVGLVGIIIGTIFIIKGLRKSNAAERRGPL

HLA-A*0201 = HLA-A*0201 (Homo sapiens, UniProt P04439, D140Y/D185E/D98H/E176V/E277Q/G131W/G231S/I119V/I121R/I166T/I218V/L300P/L318F/N151K/N90K/P208A/P217A/Q86G/Q94H/R138H/R169H/T345S); assay: purified HLA class I binding assay, A*0201
HLA-DRB1*0701 (DR7) = target: T2, HLA-DRB1*0701 (DR7) (Homo sapiens, UniProt P01903+P01911, A100R/A102G/A103Q/D57E/D86V/E43K/F76Y/K127E/L162R/M171V/P40G/Q125H/Q99D/R33Q/R42Y/R54Q/S133A/S66F/T210M/V115G/Y107V/Y59L/Y89S); assay: biochemical; format: binding
T2 construct: endogenous in cells; host or cells: Pitout

HLA-DRB1*0802 (DR8w2) = target: T3, HLA-DRB1*0802 (DR8w2) (Homo sapiens, UniProt P01903+P01911, A100R/A103L/A169T/F76Y/H45Y/I96F/K41T/L162R/M171V/P40S/Q125H/Q178H/Q39Y/Q99D/R218S/R42G/S66Y/V115G/W38E); assay: biochemical; format: binding
T3 construct: endogenous in cells

HLA-DRB1*1302 (DR6w19) = HLA-DRB1*1302 (DR6w19) (Homo sapiens, UniProt P01903+P01911, A100E/A169T/K41T/L162R/M171V/P40S/Q125H/Q178H/Q39Y/Q99D/R42S/S66N/T262R/V115G/W38E/Y61H); assay: purified HLA class II binding assay, DRB1*1302 (DR6w19); settings: Table XXb, HIV DR 3a motif peptides
HLA-A*0301 = target: T4, HLA-A*0301 (Homo sapiens, UniProt P04439); assay: purified HLA class I binding assay, A*0301; settings: HIV POL-derived A03 motif peptides; binding value for purified HLA-A*0301, unit not given
T4 construct: endogenous in cells; host or cells: GM3107

## CC(C)C[C@H](NC(=O)[C@H](CCCCN)NC(=O)[C@H](Cc1ccccc1)NC(=O)[C@H](CS)NC(=O)[C@H](Cc1c[nH]c2ccccc12)NC(=O)CNC(=O)[C@H](Cc1ccccc1)NC(=O)[C@@H](NC(=O)[C@H](CC(C)C)NC(=O)[C@@H]1CCCN1)[C@@H](C)O)C(=O)O [25.0142]
HLA-A*0202
  IC50: 741 nM
HLA-A*0206
  IC50: 3700 nM
HLA-A*6802
  IC50: 47.6 nM

## CSCC[C@H](NC(=O)[C@H](C)NC(=O)[C@@H](N)CCCNC(=N)N)C(=O)N[C@@H](C)C(=O)N[C@@H](CO)C(=O)N[C@@H](CC(=O)O)C(=O)N[C@@H](Cc1ccccc1)C(=O)N[C@@H](CC(N)=O)C(=O)N[C@@H](CC(C)C)C(=O)O [1260.10]
HLA-A*0203
  IC50: 25000 nM

## CC[C@H](C)[C@H](NC(=O)[C@@H](NC(=O)CNC(=O)[C@H](CC(C)C)NC(=O)[C@H](C)NC(=O)[C@H](Cc1ccc(O)cc1)NC(=O)[C@H](CCC(N)=O)NC(=O)[C@H](CO)NC(=O)[C@H](CC(=O)O)NC(=O)[C@@H](NC(=O)[C@@H](NC(=O)[C@@H](NC(=O)[C@H](CC(N)=O)NC(=O)[C@@H](NC(=O)[C@@H](N)CCC(=O)O)C(C)C)[C@@H](C)CC)C(C)C)[C@@H](C)O)[C@@H](C)CC)C(=O)O [Peptide 35.0127]
HLA-DRB1*0301 (DR3)
  IC50: 732 nM

## CSCC[C@H](NC(=O)[C@H](C)NC(=O)[C@H](CCC(=O)O)NC(=O)[C@H](C)NC(=O)[C@H](CC(C)C)NC(=O)[C@@H](N)C(C)C)C(=O)N[C@@H](CO)C(=O)N[C@@H](CCC(N)=O)C(=O)N[C@H](C(=O)O)C(C)C [Peptide 1069.32]
HLA-A*0202
  IC50: 82.7 nM
HLA-A*0203
  IC50: 15.2 nM

## CC[C@H](C)[C@H](NC(=O)[C@H](CC(=O)O)NC(=O)[C@@H](NC(=O)[C@H](C)NC(=O)[C@H](CC(N)=O)NC(=O)[C@H](CC(C)C)NC(=O)[C@H](CC(C)C)NC(=O)[C@@H](N)CO)[C@@H](C)O)C(=O)N[C@@H](C)C(=O)N[C@H](C(=O)O)C(C)C [Peptide 1211.09]
HLA-A*0202
  IC50: 1300 nM
HLA-A*0206
  IC50: 28.5 nM
HLA-A*6802
  IC50: 5480 nM

## CC[C@H](C)[C@H](NC(=O)[C@@H]1CCCN1C(=O)[C@@H]1CCCN1C(=O)[C@H](CC(N)=O)NC(=O)[C@H](CC(N)=O)NC(=O)[C@@H](NC(=O)[C@@H](N)CCSC)[C@@H](C)O)C(=O)N1CCC[C@H]1C(=O)N[C@H](C(=O)O)C(C)C [Peptide 1261.03]
HLA-A*0202
  IC50: 7170 nM
HLA-A*6802
  IC50: 12.1 nM

## CC(C)C[C@H](NC(=O)[C@H](CCCCN)NC(=O)[C@H](Cc1ccccc1)NC(=O)[C@H](CS)NC(=O)[C@H](Cc1c[nH]c2ccccc12)NC(=O)CNC(=O)[C@H](Cc1ccccc1)NC(=O)[C@@H](NC(=O)[C@@H](N)CC(C)C)[C@@H](C)O)C(=O)O [Peptide 1261.04]
HLA-A*0203
  IC50: 4550 nM
HLA-A*0206
  IC50: 206 nM
HLA-A*6802
  IC50: 5.6 nM

## CC[C@H](C)[C@H](NC(=O)CNC(=O)[C@H](C)NC(=O)[C@H](Cc1c[nH]c2ccccc12)NC(=O)[C@H](Cc1c[nH]c2ccccc12)NC(=O)[C@H](CS)NC(=O)[C@H](C)NC(=O)[C@H](C)NC(=O)[C@@H](N)CCCCN)C(=O)O [Peptide 1261.07]
HLA-A*0203
  IC50: 83.3 nM
HLA-A*0206
  IC50: 161 nM

## CC[C@H](C)[C@H](NC(=O)[C@H](CC(N)=O)NC(=O)[C@@H](NC(=O)[C@@H]1CCCN1C(=O)[C@@H](NC(=O)[C@@H]1CCCN1C(=O)CNC(=O)[C@@H](NC(=O)[C@@H](N)CC(C)C)C(C)C)[C@@H](C)O)C(C)C)C(=O)O [Peptide 1261.09]
HLA-A*0203
  IC50: 19.2 nM
HLA-A*0206
  IC50: 2850 nM
HLA-A*6802
  IC50: 67.8 nM

## CC[C@H](C)[C@H](NC(=O)[C@H](Cc1ccccc1)NC(=O)[C@H](CC(C)C)NC(=O)[C@H](CC(C)C)NC(=O)[C@H](CCC(N)=O)NC(=O)[C@H](CCC(N)=O)NC(=O)[C@H](CC(C)C)NC(=O)[C@@H](NC(=O)[C@@H](N)CCCNC(=N)N)[C@@H](C)CC)C(=O)O [Peptide 1261.12]
HLA-A*0201
  IC50: 19.2 nM
HLA-A*0206
  IC50: 37 nM
HLA-A*6802
  IC50: 1820 nM

## CC(C)C[C@H](NC(=O)[C@H](CCCCN)NC(=O)[C@H](Cc1ccccc1)NC(=O)[C@H](CS)NC(=O)[C@H](Cc1c[nH]c2ccccc12)NC(=O)CNC(=O)[C@H](Cc1ccccc1)NC(=O)[C@@H](NC(=O)[C@@H](N)CC(C)C)[C@@H](C)O)C(=O)N[C@H](C(=O)O)C(C)C [Peptide 1261.14]
HLA-A*0202
  IC50: 48.9 nM
HLA-A*6802
  IC50: 6.2 nM

## CC[C@H](C)[C@H](NC(=O)[C@H](Cc1ccccc1)NC(=O)CNC(=O)CNC(=O)[C@@H](NC(=O)CNC(=O)CNC(=O)[C@@H](NC(=O)[C@H](CCSC)NC(=O)[C@@H](N)CCCCN)[C@@H](C)CC)[C@@H](C)CC)C(=O)O [Peptide 1261.17]
HLA-A*0202
  IC50: 54.4 nM
HLA-A*0203
  IC50: 4.8 nM
HLA-A*0206
  IC50: 771 nM

## CTEMEKBGKISKIGP
HLA-DRB1*0301 (DR3)
  DR3 binding information: 0.0110

## DGAANRETKLCKAGY
HLA-DRB1*0301 (DR3)
  DR3 binding information: −0.0017

## FIHNFKRKG
HLA-DRB1*0701 (DR7)
  DR7 binding information: 0.0048

## FLQSRPEPT [25.0037]
HLA-A*0203
  IC50: 32.3 nM

## FSPEVIPMF
HLA-DRB1*0701 (DR7)
  DR7 binding information: 0.0023

## FYVDGAANR
HLA-DRB1*0701 (DR7)
  DR7 binding information: −0.0014
HLA-DRB1*0802 (DR8w2)
  DR8w2 binding information: 0.0035
HLA-DRB1*1302 (DR6w19)
  DR6w19 binding information: −0.0002

## GAVVIQDNSDLKVVP [Peptide 35.0133]
HLA-DRB1*0301 (DR3)
  IC50: 1000 nM

## IDPENPYNT
HLA-DRB1*0701 (DR7)
  DR7 binding information: −0.0005

## IILKTAVQMA
HLA-A*0201; HIV A02 super motif peptides, Table VIII, unit not given
  A*0201 (binding information): 0.0033
HLA-A*0301
  A0301 (HIV A03 Motif Peptides with Binding Information): 0.0003
